Source: paper doi:10.1101/2025.02.20.639278v1, “Discovery of inhibitors for bacterial Arr enzymes ADP-ribosylating and inactivating rifamycin antibiotics” (biorxiv, 2025)

Key:
MaArr [1] = molecular target: T1, MaArr (Mycobacteroides abscessus, UniProt B1MH05); assay: fluorescent NAD+ conversion assay; format: biochemical
T1 construct: gene MAB_0591; chromosomal gene; codon-optimized; His6-MBP tag cut off with TEV; E. coli BL21(DE3)

MsArr = molecular target: T2, MsArr (Mycolicibacterium smegmatis, UniProt A0QRS5, V47I/Y72F); assay: fluorescent NAD+ conversion assay; format: biochemical
T2 construct: gene MSMEG_1221; V47I Y72F variant gene; His6-MBP tag cut off with TEV; E. coli BL21(DE3)

PaArr [2] = molecular target: T3, PaArr (Pseudomonas aeruginosa, UniProt O87490); assay: fluorescent NAD+ conversion assay; format: biochemical
T3 construct: gene arr-2; class 1 integron gene; codon-optimized; His6-MBP tag cut off with TEV; E. coli BL21(DE3); monomer

PaArr [3] = molecular target: T3, PaArr; assay: fluorescent NAD+ conversion assay; format: biochemical; remark: listed apart in the source
SmArr = system: T4, SmArr; assay: fluorescent NAD+ conversion assay; format: biochemical, Stenotrophomonas maltophilia; settings: 1 µM NAD+, 2 µM rifampicin, 50 mM PIPES pH 7.5, 0.01% Triton X-100, room temperature
T4 construct: gene arr; class 1 integron gene; codon-optimized; His6-MBP tag cut off with TEV; E. coli BL21(DE3)

PARP2 = PARP2 (Homo sapiens, UniProt Q9UGN5); assay: human ADP-ribosyltransferase activity panel; format: biochemical
TNKS2 = molecular target: T5, TNKS2 (Homo sapiens, UniProt Q9H2K2); assay: human ADP-ribosyltransferase activity panel; format: biochemical
T5 sequence (Q9H2K2 1-1166): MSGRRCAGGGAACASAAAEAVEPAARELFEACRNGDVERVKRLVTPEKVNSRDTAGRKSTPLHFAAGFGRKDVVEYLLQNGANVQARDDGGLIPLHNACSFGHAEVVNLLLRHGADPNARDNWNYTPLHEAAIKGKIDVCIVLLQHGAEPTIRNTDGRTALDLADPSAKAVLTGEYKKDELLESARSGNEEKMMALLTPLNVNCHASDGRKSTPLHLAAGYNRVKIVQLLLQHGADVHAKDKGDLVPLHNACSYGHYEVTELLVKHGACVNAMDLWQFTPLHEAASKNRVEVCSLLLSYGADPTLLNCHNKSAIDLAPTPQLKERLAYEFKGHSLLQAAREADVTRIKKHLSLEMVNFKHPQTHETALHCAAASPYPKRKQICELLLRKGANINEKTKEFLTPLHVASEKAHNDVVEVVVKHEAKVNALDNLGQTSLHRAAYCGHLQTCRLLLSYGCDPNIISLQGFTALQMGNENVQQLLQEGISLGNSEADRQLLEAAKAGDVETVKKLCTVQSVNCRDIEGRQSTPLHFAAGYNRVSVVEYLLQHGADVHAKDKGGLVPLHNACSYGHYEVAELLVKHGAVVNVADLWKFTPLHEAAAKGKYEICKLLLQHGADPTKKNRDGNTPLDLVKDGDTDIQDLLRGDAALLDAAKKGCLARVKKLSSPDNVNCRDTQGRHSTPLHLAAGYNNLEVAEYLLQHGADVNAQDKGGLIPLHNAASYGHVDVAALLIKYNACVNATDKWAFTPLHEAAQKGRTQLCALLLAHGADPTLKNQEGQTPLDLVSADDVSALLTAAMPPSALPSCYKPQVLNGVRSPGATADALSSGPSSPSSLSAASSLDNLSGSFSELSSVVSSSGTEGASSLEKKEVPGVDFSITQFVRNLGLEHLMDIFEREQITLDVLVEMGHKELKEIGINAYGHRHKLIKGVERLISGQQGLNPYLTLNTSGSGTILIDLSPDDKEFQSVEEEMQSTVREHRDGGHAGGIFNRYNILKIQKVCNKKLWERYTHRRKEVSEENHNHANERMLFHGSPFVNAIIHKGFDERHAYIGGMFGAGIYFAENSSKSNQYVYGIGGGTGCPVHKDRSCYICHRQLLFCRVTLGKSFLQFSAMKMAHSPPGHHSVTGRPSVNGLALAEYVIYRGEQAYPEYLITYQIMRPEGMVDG

MaArr [4] = molecular target: T1, MaArr; assay: fluorescent NAD+ conversion assay; format: biochemical; remark: listed apart in the source
PaArr [5] = molecular target: T3, PaArr; assay: X-ray crystal structure, […] Å; format: binding; settings: crystal with 1 mM rifampicin; an additional rifampicin molecule at crystal contacts, likely artifact

SMILES | IC50 (MsArr) | IC50 (PaArr [3]) | IC50 (SmArr) | other results
Nc1nc2ccc(Cl)cc2c(O)c1-c1ccccc1 [compound 1] | 1300 nM | – | – | inhibition at 100 µM (MaArr [1]): < 50%; inhibition at 100 µM (PaArr [2]): < 50%
O=c1c(O)c(-c2cc(O)c(O)c(O)c2)oc2cc(O)cc(O)c12 [compound 7] | – | 470 nM | 1700 nM | –
Oc1ccc(O)c2c1sc1nncn12 [compound 13, 13] | – | – | 1200 nM | –
NS(=O)(=O)c1ccc(-c2nc3ccccc3c(=O)[nH]2)cc1 [compound 2] | 2000 nM | 10000 to 100000 nM | 10000 to 100000 nM | IC50 (PARP2): showed strong inhibition of TNKS2 and PARP2 as expected (Figure 3E); IC50 (TNKS2): showed strong inhibition of TNKS2 and PARP2 as expected (Figure 3E); IC50 (MaArr [4]): 10000 to 100000 nM
CO[C@H]1/C=C/O[C@@]2(C)Oc3c(C)c(O)c4c(O)c(c(/C=N/N5CCN(C)CC5)c(O)c4c3C2=O)NC(=O)/C(C)=C\C=C\[C@H](C)[C@H](O)[C@@H](C)[C@@H](O)[C@@H](C)[C@H](OC(C)=O)[C@@H]1C [rifampicin] | – | – | – | X-ray crystal structure, 1.4 Å (PaArr [5]): In the crystal structure of PaArr, an additional rifampicin molecule stacks against these two areas
